According to patent US6277364A, “Polyurethanes as topical skin protectants” (Bertek Pharmaceuticals, Inc., priority 1998, dated 2001):
In brackets after ≈: the same amount, converted by molar mass.

Tests used:
physchem = settings: water
[1] = in vivo
Excerpt: In this example, the FTIR-ATR technique was used to assess the presence and amount of polyolprepolymer-2 ("PP-2") in the stratum corneum of two human subjects, in vivo.
The test solution contained 10 wt % PP-2 dissolved in ethanol/water (60:40 v/v). the control solution consisted only of ethanol/water (60:40 v/v). Webtril™ pads (12cm×2.5cm) were saturated either with test or control solution and were applied to the left and right forearms of two subjects, respectively. The pads were secured in place with Tegaderm 1626™ occlusive transparent dressing during the entire 3 hour exposure period. The skin surface of the dosing sites was lightly wiped with two cotton-tipped swabs following the exposure period. A total of 8 tape strippings were performed: 6 were done immediately and 2 were done 2 hours later. […]
FTIR spectra of the stratum comeum was measured from the dosing site and compared with the FTIR spectra of PP-2. The ratio of PP-2 absorption at 1095 cm^-1 to stratum corneum absorption at 675 cm^-1 (R 1095/675) was determined to account for potential differences in degree of contact between the sample (forearm) and the ATR crystal. […]
The absorbance ratio, R 1095/675, of PP-2 was determined. The quantity εb was computed, based upon the known surface concentration of PP-2 and using Beer's Law (A=εbC). […]

Row | Compound | solubility (physchem) [mg/mL] | localization in skin [1]
1 | O=c1[nH]cc(F)c(=O)[nH]1 [5-FU, 5-fluorouracil] | 10.2 (≈ 78.4 mM) | 
2 | poly[oxy(methyl-1,2-ethanediyl)], α-hydro-ω-hydroxy-, polymer with 1,1'-methylene-bis-[4-isocyanatocyclohexane] [PP-2] |  | localized in the stratum corneum
